# In patent publication US4451485A, “Treatment of cardio-vascular diseases with 3-(2,2,2-trimethylhydrazinium) propionate dihydrate” (Institu Organicheskogo Sinteza Akademii Nauk Latviiskoi SSR, priority 1981, dated 1984):
# How the values were obtained:
# [1] = in the organism; cited from earlier work
# [2] = Aconitine model of arrhythmia in white rats; assay type: in vivo; conditions: for ED50: Rattus norvegicus, ip, read-out: ED50, aconitine arrhythmia in rats; for Antiarrhythmic index LD50/ED50, aconitine arrhythmia in rats: rat, in vivo
# Method: (§1) For the comparison of preparations, as the criterion of the range of therapeutic effect, there was used the ratio of the half-lethal dose to the half-effective dose (LD50 /ED50) which was referred to as the antiarrhythmic index. […] The comparative study of the antiarrhythmic activity of pharmaceutical preparations using an acotine model of arrhythmia was effected in experiments on white rats weighing 190-240 g. The test preparations were administered intraperitoneally 10-40 minutes before administration of aconitine.
# [3] = Variation of arrhythmogenic and lethal doses of CaCl2 in mice; assay type: in vivo, white mice; conditions: for Effect on arrhythmogenic and lethal doses of calcium chloride: single intraperitoneal administration
# Method: Thus, the effect of the preparation according to the present invention has been studied relative to the variation of arrhythmogenic and lethal doses of calcium chloride. An experiment was carried out on white mice of both sexes weighing 19-28 g which were narcotized by urethane and an ECG was remetered in transthoracic lead. A 2% solution of calcium chloride was administered to the test animals into the tail vein at a constant rate (0.1 ml for 15 seconds). The average dose of calcium chloride causing the appearance of arrhythmia and heart arrest was determined. In the test groups, the studied compounds were administered 45, 60, 120, 180 and 240 minutes before the beginning of administration of calcium chloride (Table 1).
# Variation of arrthythmogenic and lethal doses of CaCl2
# with time after administration of the studied
# pharmaceutical compositions in experiments on mice.
# [4] = Threshold of electric fibrillation of auricles and ventricles in cats; assay type: in vivo; conditions: for ED50: Felis catus, read-out: ED50, electric irritation of cat's heart; for Effect on fibrillation threshold relative to the composition of the invention: novocainamide 40-55 mg/kg, quinidine and lidocain lower doses
# Method: Furthermore, the preparation according to the present invention was tested for specific antiarrhythmic and antianginal effects. […] The effect of the novel pharmaceutical composition according to the present invention was studied on cats weighing 2.9-3.6 kg. The preparation was used as a 10% aqueous solution containing 3-(2,2,2-trimethylhydrazinium)propionate for the determination of the threshold value of electric fibrillation of auricles and ventricles. Under artificial respiration after opening of the thorax and pericardium, needle-like electrodes were applied to the right auricula and apex of the left ventricle. The irritation was effected by square pulses of 1 m.s., 15 st/s.
# as §1
# [5] = Strophanthin arrhythmia in guinea pigs (450 μg/kg); assay type: in vivo; conditions: for ED50: Cavia porcellus, read-out: ED50, Strophanthin arrhythmia in guinea pigs
# Method: As the third model of arrhythmia, there was used strophanthin arrhythmia in guinea pigs. […] Against the background of arrhythmia the test preparations were administered intravenously.
# in vivo = assay: in vivo; design: species or system white mice; conditions: mouse, in vivo; for LD50: white mice, intravenous (Table 2)
# [6] = Coronary circulation and hemodynamics in narcotized cats; assay type: in vivo
# Method: In acute experiments on narcotized cats with a mass of from 2.9 to 4.1 kg under artificial respiration, arterial pressure was recorded in the common carotide artery, central venous pressure in the right auricle, volume rate of blood flow in the ascending aortic arch and volume rate of the coronary blood flow. At the same time, there was recorded the content of oxyhemoglobin in venous coronary blood.
# [7] = 10 mg/kg intraperitoneal, 60 minutes
# [8] = 10 mg/kg intraperitoneal, 120 minutes
# [9] = 30 mg/kg intraperitoneal, 60 minutes
# [10] = 30 mg/kg intraperitoneal, 120 minutes
# [11] = 3 mg/kg intraperitoneal, 45 minutes
# [12] = 3 mg/kg intraperitoneal, 60 minutes
# [13] = 3 mg/kg intraperitoneal, 120 minutes
# [14] = 10 mg/kg intraperitoneal, 180 minutes
smiles,measurement,setting,value
C[N+](C)(C)CCCC(=O)[O-] [γ-butyrobetain],Metabolism into carnitine,[1],rapidly metabolized
CCN(CC)CCNC(=O)c1ccc(N)cc1 [Novocainamide],ED50,[2],45 ± 5 mg/kg
same,"Antiarrhythmic index LD50/ED50, aconitine arrhythmia in rats",[2],2.5
same,Arrhythmogenic dose of CaCl2,[3]; [7],114.16 mg/kg
same,Lethal dose of CaCl2,[3]; [7],120.8 mg/kg
same,Arrhythmogenic dose of CaCl2,[3]; [8],86.85 mg/kg
same,Lethal dose of CaCl2,[3]; [8],104.5 mg/kg
same,Arrhythmogenic dose of CaCl2,[3]; [9],125.16 mg/kg
same,Lethal dose of CaCl2,[3]; [9],143 mg/kg
same,Arrhythmogenic dose of CaCl2,[3]; [10],93.16 mg/kg
same,Lethal dose of CaCl2,[3]; [10],114.9 mg/kg
same,Effect on arrhythmogenic and lethal doses of calcium chloride,[3],more pronounced increase of the arrhythmogenic dose of calcium chloride
same,ED50,[4]; iv,46 ± 6.3 mg/kg
same,"Antiarrhythmic index LD50/ED50, electric irritation of cat's heart",[4]; intravenous,2
same,"Antiarrhythmic index LD50/ED50, electric irritation of cat's heart","[4]; intravenous, listed as novocainamide",2.3
same,Effect on fibrillation threshold relative to the composition of the invention,[4],the same effect
same,ED50,[5]; intravenous,55 ± 7.3 mg/kg
same,Duration for which Strophanthin-induced arrhythmia is cut short / ECG improved,[5]; intravenous,5 to 20 min
same,LD50,in vivo,112 mg/kg
C=C[C@H]1C[N@@]2CC[C@H]1C[C@@H]2[C@@H](O)c1ccnc2ccc(OC)cc12 [Quinidine],ED50,[2],4.3 ± 0.6 mg/kg
same,"Antiarrhythmic index LD50/ED50, aconitine arrhythmia in rats",[2],16
same,Arrhythmogenic dose of CaCl2,[3]; [11],128.9 mg/kg
same,Lethal dose of CaCl2,[3]; [11],147.7 mg/kg
same,Arrhythmogenic dose of CaCl2,[3]; [12],104.5 mg/kg
same,Lethal dose of CaCl2,[3]; [12],117.8 mg/kg
same,Arrhythmogenic dose of CaCl2,[3]; [13],87.47 mg/kg
same,Lethal dose of CaCl2,[3]; [13],103.65 mg/kg
same,Arrhythmogenic dose of CaCl2,"[3]; 10 mg/kg intraperitoneal, 45 minutes before CaCl2, control 85",120.84 mg/kg
same,Lethal dose of CaCl2,"[3]; 10 mg/kg intraperitoneal, 45 minutes before CaCl2, control 100.9",138.54 mg/kg
same,Arrhythmogenic dose of CaCl2,[3]; [7],119.48 mg/kg
same,Lethal dose of CaCl2,[3]; [7],126.2 mg/kg
same,Arrhythmogenic dose of CaCl2,[3]; [8],94.5 mg/kg
same,Lethal dose of CaCl2,[3]; [8],117.6 mg/kg
same,Arrhythmogenic dose of CaCl2,[3]; [14],88.7 mg/kg
same,Lethal dose of CaCl2,[3]; [14],115.8 mg/kg
same,Effect on arrhythmogenic and lethal doses of calcium chloride,[3],more pronounced increase of the arrhythmogenic dose of calcium chloride
same,ED50,[4]; intravenous,2.6 ± 0.5 mg/kg
same,"Antiarrhythmic index LD50/ED50, electric irritation of cat's heart",[4]; intravenous,26
same,Effect on fibrillation threshold relative to the composition of the invention,[4],exerting their effect at lower doses
same,ED50,[5]; intravenous,2.3 ± 0.4 mg/kg
same,"Antiarrhythmic index LD50/ED50, Strophanthin arrhythmia in guinea pigs","[5]; guinea pig, in vivo",30
same,Duration for which Strophanthin-induced arrhythmia is cut short / ECG improved,[5]; intravenous,0.5 to 3 min
same,Number of animals (experiments) with effect on arrhythmia,[5]; intravenous,4 out of 8
same,Toxicity relative to the composition of the invention,in vivo,substantially higher toxicity
same,LD50,in vivo,68 mg/kg
CCN(CC)CC(=O)Nc1c(C)cccc1C [Lidocain],ED50,[5]; iv,3.8 ± 0.5 mg/kg
same,Duration for which Strophanthin-induced arrhythmia is cut short / ECG improved,[5]; intravenous,0.5 to 3 min
same,Number of animals (experiments) with effect on arrhythmia,[5]; intravenous,4 out of 7
"CCOC(=O)COc1ccc2c(C)c(CCN(CC)CC)c(=O)oc2c1 [Carbocromene, reference compound]",Increase duration,[6]; 0.5 mg/kg,35 min
same,"Volume rate, percent of increase",[6]; 0.5 mg/kg,30%
same,Change of heart output,[6]; 2 mg/kg,+5 - 15%
same,Increase duration,[6]; 2 mg/kg,50 min
same,"Volume rate, percent of increase",[6]; 2 mg/kg,45%
same,Change of arterial pressure,[6]; 5 mg/kg,0 - +7%
same,Change of central venous pressure,[6]; 5 mg/kg,5 - 10%
same,Change of heart output,[6]; 5 mg/kg,+5 - 15%
same,Increase duration,[6]; 5 mg/kg,70 min
same,"Volume rate, percent of increase",[6]; 5 mg/kg,55%
same,Saturation of the venous blood of coronary sinus with oxygen,[6]; in vivo,lastingly increase saturation of the venous blood of coronary sinus with oxygen
